Data taken from patent US20150307938A1, “METHOD TO IDENTIFY A NOVEL CLASS OF IMMUNOLOGIC ADJUVANTS” (Lancell, L.L.C., priority 2011, published 2015).

Test system: skin
Experiment: Affymetrix microarray of skin, DBP-4 hr and analogs vs. untreated; gene selection by log-2 fold change, Wilcoxon, Kendall tau (Tables 8, 9)
Format: in vivo, mouse

CCCCOC(=O)c1ccccc1C(=O)OCCCC [DBP, dibutylphthalate]
Kendall: Dda1 (gene Dda1, NM_025600_at, gene expression vs. output): Yes | Wilcoxon: Diablo (gene Diablo, NM_023232_at, DBP-4 hr vs. untreated): No | Kendall: Diablo (gene Diablo, NM_023232_at, gene expression vs. output): Yes | Wilcoxon: Dmap1 (gene Dmap1, NM_023178_at, DBP-4 hr vs. untreated): No | Kendall: Dmap1 (gene Dmap1, NM_023178_at, gene expression vs. output): Yes | Wilcoxon: Dnajc4 (gene Dnajc4, NM_020566_at, DBP-4 hr vs. untreated): No | Kendall: Dnajc4 (gene Dnajc4, NM_020566_at, gene expression vs. output): Yes | Wilcoxon: Eid1 (gene Eid1, NM_025613_at, DBP-4 hr vs. untreated): No | Kendall: Eid1 (gene Eid1, NM_025613_at, gene expression vs. output): Yes | Wilcoxon: Eif6 (gene Eif6, NM_010579_at, DBP-4 hr vs. untreated): No | Kendall: Eif6 (gene Eif6, NM_010579_at, gene expression vs. output): Yes | Wilcoxon: Erlec1 (gene Erlec1, NM_025745_at, DBP-4 hr vs. untreated): No | Kendall: Erlec1 (gene Erlec1, NM_025745_at, gene expression vs. output): Yes | Wilcoxon: Fam134b (gene Fam134b, NM_025459_at, DBP-4 hr vs. untreated): No | Kendall: Fam134b (gene Fam134b, NM_025459_at, gene expression vs. output): Yes | Wilcoxon: Fbxo25 (gene Fbxo25, NM_025785_at, DBP-4 hr vs. untreated): No | Kendall: Fbxo25 (gene Fbxo25, NM_025785_at, gene expression vs. output): Yes | Wilcoxon: Fgf13 (gene Fgf13, NM_010200_at, DBP-4 hr vs. untreated): No | Kendall: Fgf13 (gene Fgf13, NM_010200_at, gene expression vs. output): Yes | Wilcoxon: Flt1 (gene Flt1, NM_010228_at, DBP-4 hr vs. untreated): No | Kendall: Flt1 (gene Flt1, NM_010228_at, gene expression vs. output): Yes | Wilcoxon: Fmo5 (gene Fmo5, NM_010232_at, DBP-4 hr vs. untreated): No | Kendall: Fmo5 (gene Fmo5, NM_010232_at, gene expression vs. output): Yes | Wilcoxon: Ftsj3 (gene Ftsj3, NM_025310_at, DBP-4 hr vs. untreated): No | Kendall: Ftsj3 (gene Ftsj3, NM_025310_at, gene expression vs. output): Yes | Wilcoxon: Gcnt2 (gene Gcnt2, NM_023887_at, DBP-4 hr vs. untreated): No | Kendall: Gcnt2 (gene Gcnt2, NM_023887_at, gene expression vs. output): Yes | Wilcoxon: Gmcl1 (gene Gmcl1, NM_011818_at, DBP-4 hr vs. untreated): No | Kendall: Gmcl1 (gene Gmcl1, NM_011818_at, gene expression vs. output): Yes | Wilcoxon: Gpn3 (gene Gpn3, NM_024216_at, DBP-4 hr vs. untreated): No | Kendall: Gpn3 (gene Gpn3, NM_024216_at, gene expression vs. output): Yes | Wilcoxon: Gstz1 (gene Gstz1, NM_010363_at, DBP-4 hr vs. untreated): No | Kendall: Gstz1 (gene Gstz1, NM_010363_at, gene expression vs. output): Yes | Wilcoxon: Gtf2h2 (gene Gtf2h2, NM_022011_at, DBP-4 hr vs. untreated): No | Kendall: Gtf2h2 (gene Gtf2h2, NM_022011_at, gene expression vs. output): Yes | Wilcoxon: Gtf3a (gene Gtf3a, NM_025652_at, DBP-4 hr vs. untreated): No | Kendall: Gtf3a (gene Gtf3a, NM_025652_at, gene expression vs. output): Yes | Wilcoxon: Hsdl2 (gene Hsdl2, NM_024255_at, DBP-4 hr vs. untreated): No | Kendall: Hsdl2 (gene Hsdl2, NM_024255_at, gene expression vs. output): Yes | Wilcoxon: Icos (gene Icos, NM_017480_at, DBP-4 hr vs. untreated): No | Kendall: Icos (gene Icos, NM_017480_at, gene expression vs. output): Yes | Wilcoxon: Ifngr1 (gene Ifngr1, NM_010511_at, DBP-4 hr vs. untreated): No | Kendall: Ifngr1 (gene Ifngr1, NM_010511_at, gene expression vs. output): Yes | Wilcoxon: Inpp5d (gene Inpp5d, NM_010566_at, DBP-4 hr vs. untreated): No | Kendall: Inpp5d (gene Inpp5d, NM_010566_at, gene expression vs. output): Yes | Wilcoxon: Itgax (gene Itgax, NM_021334_at, DBP-4 hr vs. untreated): No | Kendall: Itgax (gene Itgax, NM_021334_at, gene expression vs. output): Yes | Wilcoxon: Itk (gene Itk, NM_010583_at, DBP-4 hr vs. untreated): No | Kendall: Itk (gene Itk, NM_010583_at, gene expression vs. output): Yes | Wilcoxon: Krt17 (gene Krt17, NM_010663_at, DBP-4 hr vs. untreated): No | Kendall: Krt17 (gene Krt17, NM_010663_at, gene expression vs. output): Yes | Wilcoxon: Map3k14 (gene Map3k14, NM_016896_at, DBP-4 hr vs. untreated): No | Kendall: Map3k14 (gene Map3k14, NM_016896_at, gene expression vs. output): Yes | Wilcoxon: Mdp1 (gene Mdp1, NM_023397_at, DBP-4 hr vs. untreated): No | Kendall: Mdp1 (gene Mdp1, NM_023397_at, gene expression vs. output): Yes | Wilcoxon: Meis1 (gene Meis1, NM_010789_at, DBP-4 hr vs. untreated): No | Kendall: Meis1 (gene Meis1, NM_010789_at, gene expression vs. output): Yes | Wilcoxon: Mkrn3 (gene Mkrn3, NM_011746_at, DBP-4 hr vs. untreated): No | Kendall: Mkrn3 (gene Mkrn3, NM_011746_at, gene expression vs. output): Yes | Wilcoxon: Mtcp1 (gene Mtcp1, NM_010839_at, DBP-4 hr vs. untreated): No | Kendall: Mtcp1 (gene Mtcp1, NM_010839_at, gene expression vs. output): Yes | Wilcoxon: Mum1 (gene Mum1, NM_023431_at, DBP-4 hr vs. untreated): No | Kendall: Mum1 (gene Mum1, NM_023431_at, gene expression vs. output): Yes | Wilcoxon: Myd88 (gene Myd88, NM_010851_at, DBP-4 hr vs. untreated): No | Kendall: Myd88 (gene Myd88, NM_010851_at, gene expression vs. output): Yes | Wilcoxon: Nagk (gene Nagk, NM_019542_at, DBP-4 hr vs. untreated): No | Kendall: Nagk (gene Nagk, NM_019542_at, gene expression vs. output): Yes | Wilcoxon: Ndufaf3 (gene Ndufaf3, NM_023247_at, DBP-4 hr vs. untreated): No | Kendall: Ndufaf3 (gene Ndufaf3, NM_023247_at, gene expression vs. output): Yes | Wilcoxon: Nek3 (gene Nek3, NM_011848_at, DBP-4 hr vs. untreated): No | Kendall: Nek3 (gene Nek3, NM_011848_at, gene expression vs. output): Yes | Wilcoxon: Nfkb2 (gene Nfkb2, NM_019408_at, DBP-4 hr vs. untreated): No | Kendall: Nfkb2 (gene Nfkb2, NM_019408_at, gene expression vs. output): Yes | Wilcoxon: Nicn1 (gene Nicn1, NM_025449_at, DBP-4 hr vs. untreated): No | Kendall: Nicn1 (gene Nicn1, NM_025449_at, gene expression vs. output): Yes | Wilcoxon: Nme3 (gene Nme3, NM_019730_at, DBP-4 hr vs. untreated): No | Kendall: Nme3 (gene Nme3, NM_019730_at, gene expression vs. output): Yes | Wilcoxon: Ntpcr (gene Ntpcr, NM_025636_at, DBP-4 hr vs. untreated): No | Kendall: Ntpcr (gene Ntpcr, NM_025636_at, gene expression vs. output): Yes | Wilcoxon: Orc3 (gene Orc3, NM_015824_at, DBP-4 hr vs. untreated): No | Kendall: Orc3 (gene Orc3, NM_015824_at, gene expression vs. output): Yes | Wilcoxon: Padi1 (gene Padi1, NM_011059_at, DBP-4 hr vs. untreated): No | Kendall: Padi1 (gene Padi1, NM_011059_at, gene expression vs. output): Yes | Wilcoxon: Panx1 (gene Panx1, NM_019482_at, DBP-4 hr vs. untreated): No | Kendall: Panx1 (gene Panx1, NM_019482_at, gene expression vs. output): Yes | Wilcoxon: Pfdn2 (gene Pfdn2, NM_011070_at, DBP-4 hr vs. untreated): No | Kendall: Pfdn2 (gene Pfdn2, NM_011070_at, gene expression vs. output): Yes | Wilcoxon: Phtf1 (gene Phtf1, NM_013629_at, DBP-4 hr vs. untreated): No | Kendall: Phtf1 (gene Phtf1, NM_013629_at, gene expression vs. output): Yes
